Experimental data: US10967060B2, “Synergistic combination of immunologic inhibitors for the treatment of cancer” (The University of Chicago, priority 2012, dated 2021)

System: B16-SIY cells
Test: Unaffected fraction (synergy) analysis of tumor growth inhibition of combination therapies
Format: in vivo, C57BL/6 mice
Details: for Predicted TGI: expected for purely additive effect
Protocol: Treatment was initiated on day 4 post tumor inoculation with the following regimens for each drug. αCTLA-4 antibody (clone UC10-4F10-11, Bio-X-Cell) was given i.p. on day 4, 7 and 10 at a dose of 100 μg/mouse. αPD-L1 antibody (clone 10F.9G2, Bio-X-Cell) was given i.p. (100 μg/mouse) every other day starting on day 4 ending on day 16 post tumor inoculation. IDOi (INCB23843, Incyte Corporation) was dissolved in 0.5% methylcellulose and administered at 300 mg/kg po QD on a 5 days on/2 days off schedule starting on day 4. In the case of functional experiments with an earlier endpoint, treatment regimens were carried out as described until the day of T cell analysis. A comparison between IDOi and IDOc (INCB24360, Incyte Corporation) was perfomed according to the treatment regime described above. Tumor outgrowth was followed starting day 7 onwards and is depicted in combination with anti-CTLA4 (FIG. 18A) or anti-PD-L1 (FIG. 18B). N=5 mice per group, and a two-way Anova test was used to determine significance between the groups.
Treatment was administered in the same fashion as described for FIG. 9, with the exception that IDOi (INCB23843) was replaced by IDOc (INCB24360) in the indicated groups.
Synergy analysis was performed with day 15 data and with day 23 data. Actual tumor growth inhibition (TGI) is the experimental TGI seen in this experiment for the combinations, and predicted TGI is the TGI that would have been expected for a purely additive combination effect from the performance of the individual agents in this experiment. Actual TGIs higher than predicted TGIs reflect better than additive (synergistic) data.

[1] = Day 15 (end of dosing), in combination with anti CTLA4
[2] = Day 15 (end of dosing), in combination with antiPDL1
[3] = Day 23 (last day of vehicles), in combination with anti CTLA4
[4] = Day 23 (last day of vehicles), in combination with antiPDL1

Question: How did the “Actual TGI” value [1] turn out when NS(=O)(=O)NCCNc1nonc1/C(=N/O)Nc1ccc(F)c(Br)c1 [IDOc] was run?
Answer: Its value is 74%.

Question: And the “Predicted TGI” value [1]?
Answer: Its value is 66%.

Question: And the “Actual TGI” value [2]?
Answer: The value was 81%.

Question: And the “Predicted TGI” value [2]?
Answer: Its value is 24%.

Question: What about the “Actual TGI” value [3] of the same molecule?
Answer: Its value is 93%.

Question: And the “Predicted TGI” value [3]?
Answer: Its value is 65%.

Question: What about the “Actual TGI” value [4] of the same molecule?
Answer: The value was 82%.

Question: What about the “Predicted TGI” value [4] of the same molecule?
Answer: The value was 35%.
